Results on 30 compounds are retold here after PMC9616048, “Thermal proteome profiling reveals Haemonchus orphan protein HCO_011565 as a target of the nematocidal small molecule UMW-868” (Frontiers in Pharmacology, 2022).

The test system of test [1] is exsheathed third-stage larvae (xL3s) of H. contortus. Put plainly: High throughput screen, xL3 motility (infrared light beam-interference). Format: cell-based. Particulars: Haemonchus contortus, 90 h, read-out: Motility reduction at 90 h (%). As to the method: An established platform was used for compound screening ([Taki et al., 2021a]). Using a semi-automated liquid handling robot (VIAFLO ASSIST PLUS, Integra Biosciences), compounds were individually diluted to […] in LB* containing 0.2% (v/v) DMSO and then dispensed in 20 µl into the wells of sterile 384-well flat bottom microtitre plates (cat. no. 3680; Corning); 320 compounds were arrayed on each plate, with 16 wells being negative controls (with LB* + 0.2% DMSO) and four wells containing each monepantel (Zolvix; Elanco), moxidectin (Cydectin; Virbac), monepantel + abamectin (Zolvix Plus; Elanco) and compound MIPS-0018666 (abbreviated here as M-666) ([Le et al., 2018]) as positive controls (20 µM). Following the dilution and dispensing of compounds into plates, 80 H. contortus xL3s in 20 μl of LB* were transferred to individual wells; after this step, the final concentrations were 20 µM of test- or positive-control compound, and 0.2% of DMSO. During dispensing, xL3s were maintained in a homogenous suspension using a constant stream of bubbles produced employing an aquarium pump (H2Pro). Plates containing H. contortus xL3s were incubated at 38 °C, 10% (v/v) CO2 and >90% relative humidity.
After 90 h of incubation with compounds (20 μM), H. contortus xL3s motility was measured for 15 min in individual wells of each plate by infrared light beam-interference ([Simonetta and Golombek, 2007]) using a WMicroTracker ONE instrument (Phylumtech). Raw data captured were normalised against measurements obtained for the positive (monepantel) and negative (LB* + 0.2% DMSO) controls to remove plate-to-plate variation by calculating the percentage of motility using the program GraphPad Prism (v.9.1.2; GraphPad Software). A compound was considered active (“hit”) if it reduced larval motility by ≥ 70%. To continually assess the performance of the screening assay, the Z′-factor ([Zhang et al., 1999]) was calculated (using data for the DMSO and the M-666 controls) for individual plates (n = 43) and was consistently ≥0.7; reliable assays achieve a Z′-factor of between 0.5 and 1. The signal to background (S/B) ratio (for the same controls) ([Sui and Wu, 2007]) was consistently >200.

Test [2] concerns H. contortus xL3 to L4 development. Nature of the test: High throughput screen, larval development and phenotype at 168 h. Format: cell-based, Haemonchus contortus. The settings on record: for inhibition at 20 µM: Haemonchus contortus, development to L4; for Abnormal phenotype detected at 168 h: 20 µM. The method, then: Following the measurement of xL3 motility, plates were incubated again for 78 h (i.e., a total of 168 h) under the same conditions. Thereafter, 40 µl of 1% (v/v) iodine were added to individual wells, and worms examined using a light microscope (M80, Leica) at 60-times magnification to assess larval development, based on the presence/absence of a well-developed pharynx ([Sommerville, 1966]), and/or phenotypic alterations with respect to untreated xL3s.

On to `N#CC(C#N)=NNc1ccc(C(F)(F)F)cc1` [MBHF-hit1, 2-{2-[4-(trifluoromethyl)phenyl]hydrazono}malononitrile], for which the inhibition at 20 µM in test [1] was 102%; in test [2], 100%.
Turning to `C(#Cc1ccc(-c2cc[nH]n2)s1)c1ccccc1` [MBHF-hit2, 3-[5-(2-phenyleth-1-ynyl)-2-thienyl]-1H-pyrazole], the inhibition at 20 µM in test [1] stood at 98.4%. Besides, in test [2], the “Abnormal phenotype detected at 168 h” value was “Cur, Evi” and the inhibition at 20 µM came to 100%.
Take `CC(=NOc1nc(-c2ccccc2)ns1)c1cccs1` [MBHF-hit3, 1-(2-thienyl)-1-ethanone O-(3-phenyl-1,2,4-thiadiazol-5-yl)oxime]: the inhibition at 20 µM in test [1] was determined as 96.4%. Further, in test [2], the “Abnormal phenotype detected at 168 h” value was “Cur, Evi” and the inhibition at 20 µM was less than 80%.
Turning to `CCCCOc1ccc(-c2ccc(C#N)cc2)cc1` [MBHF-hit4, 4'-butoxy[1,1'-biphenyl]-4-carbonitrile], the values for the inhibition at 20 µM in test [1] and in test [2] were 95.6% and 100%, respectively. In test [2], the “Abnormal phenotype detected at 168 h” value was “Cur, Evi”.
Regarding `N#CC(=NNc1ccc(Cl)cc1Cl)C(=O)c1ccc(Cl)cc1` [MBHF-hit5, 3-(4-chlorophenyl)-2-[2-(2,4-dichlorophenyl)hydrazono]-3-oxopropanenitrile], the figures for the inhibition at 20 µM in test [1] and in test [2] were 95.2% and 100%, respectively.
On to `C(#Cc1ccc(-c2ccn[nH]2)cc1)c1ccccc1` [MBHF-hit6, 5-[4-(2-phenyleth-1-ynyl)phenyl]-1H-pyrazole], for which, in test [1], the inhibition at 20 µM is 94%. In test [2], the “Abnormal phenotype detected at 168 h” value was “Cur, Evi” and the inhibition at 20 µM was determined as 100%.
Regarding `CSc1c(-c2ccc(Cl)cc2)[nH]c2ccccc12` [MBHF-hit7, 2-(4-chlorophenyl)-3-(methylthio)-1H-indole], in test [1], the inhibition at 20 µM turned out to be 91.9%. In test [2], the “Abnormal phenotype detected at 168 h” value is recorded as “Cur, Evi” and the inhibition at 20 µM is 100%.
In the case of `N#Cc1c(Cl)c(Cl)c(Cl)c(Cl)c1C#N` [MBHF-hit8, 3,4,5,6-tetrachlorophthalonitrile], the results for the inhibition at 20 µM in test [1] and in test [2] were 91% and less than 80%, respectively.
In the case of `O=C(C=CSc1ccc(Cl)cc1)c1cccs1` [MBHF-hit9, 3-[(4-chlorophenyl)thio]-1-(2-thienyl)prop-2-en-1-one], the figures for the inhibition at 20 µM in test [1] and in test [2] were 89.4% and 100%, respectively.
In the same order, the values of `O=C(c1cc(C(F)(F)F)cc(C(F)(F)F)c1)N1CCC(O)(c2ccc(Cl)cc2)CC1` [MBHF-hit10, [3,5-bis(trifluoromethyl)phenyl][4-(4-chlorophenyl)-4-hydroxypiperidino]methanone] are 84.2% and less than 80%.
`Nc1ccccc1C(=O)N1CCN(c2ccc([N+](=O)[O-])cn2)CC1` [MBHF-hit11, (2-aminophenyl)[4-(5-nitro-2-pyridyl)piperazino]methanone]: the inhibition at 20 µM in test [1] is 82.7%; in test [2], less than 80%.
Take `O=C(Nc1ccc(F)cc1)Nc1cnn(-c2ccc([N+](=O)[O-])cc2)c1C(F)(F)F` [MBHF-hit12, N-(4-fluorophenyl)-N'-[1-(4-nitrophenyl)-5-(trifluoromethyl)-1H-pyrazol-4-yl]urea]: the inhibition at 20 µM in test [1] came out at 82.3%. Besides, in test [2], the “Abnormal phenotype detected at 168 h” value is listed as “Cur, Evi” and the inhibition at 20 µM was 80 to 99%.
Consider `CC1=CSC(=C(C#N)C(=O)c2ccccc2Cl)N1c1ccccc1Cl` [MBHF-hit13, 3-(2-chlorophenyl)-2-[3-(2-chlorophenyl)-4-methyl-1,3-thiazol-2(3H)-ylidene]-3-oxopropanenitrile], for which the inhibition at 20 µM in test [1] was 78.8%; in test [2], less than 80%.
Consider `Cc1ccc2oc(=O)n(CCC(N)=NOC(=O)c3ccccc3)c2c1` [MBHF-hit14, N'-(benzoyloxy)-3-[5-methyl-2-oxo-1,3-benzoxazol-3(2H)-yl]propanimidamide], for which the inhibition at 20 µM in test [1] is 81.6%; in test [2] it was less than 80%.
On to `NC(=O)C1CCN(C(=O)c2ccc(Oc3cc(Cl)cc(Cl)c3)o2)CC1` [MBHF-hit15, 1-{[5-(3,5-dichlorophenoxy)-2-furyl]carbonyl}-4-piperidinecarboxamide], for which the inhibition at 20 µM was 78.7% in test [1] and less than 80% in test [2].
Consider `COc1ccc(SCc2nsc(Sc3ccc(OC)cc3)n2)cc1` [MBHF-hit16, 5-[(4-methoxyphenyl)thio]-3-{[(4-methoxyphenyl)thio]methyl}-1,2,4-thiadiazole], for which the inhibition at 20 µM in test [1] came to 78.5%. Also, in test [2], the “Abnormal phenotype detected at 168 h” value was “Cur, Evi” and the inhibition at 20 µM is 80 to 99%.
Consider `N#CC(=NNc1cccc(C(F)(F)F)c1)C(=O)c1csc(-c2cccnc2)n1` [MBHF-hit18, 3-oxo-3-[2-(3-pyridyl)-1,3-thiazol-4-yl]-2-{2-[3-(trifluoromethyl)phenyl]hydrazono}propanenitrile], for which the values for the inhibition at 20 µM in test [1] and in test [2] were 77.1% and less than 80%, respectively.
As to `CCCc1ccc(-c2ccc(C#N)cc2)nc1` [MBHF-hit19, 4-(5-propyl-2-pyridyl)benzonitrile], the values for the inhibition at 20 µM in test [1] and in test [2] were 76.9% and less than 80%, respectively.
Take `O=C(c1ccc(-c2cccs2)s1)c1ccc(F)cc1F` [MBHF-hit20, (2,4-difluorophenyl)[5-(2-thienyl)-2-thienyl]methanone]: in test [1], the inhibition at 20 µM was determined as 76.7%. Also, in test [2], the “Abnormal phenotype detected at 168 h” value was “Str, Cur” and the inhibition at 20 µM turned out to be 100%.
With `O=C1c2ccccc2C(=O)N1CCSCc1cccc(C(F)(F)F)c1` [MBHF-hit21, 2-(2-{[3-(trifluoromethyl)benzyl]thio}ethyl)-1H-isoindole-1,3(2H)-dione], in test [1], the inhibition at 20 µM worked out at 76.5%. In test [2], the “Abnormal phenotype detected at 168 h” value is on record as “Cur, Evi” and the inhibition at 20 µM is 100%.
`CC12NC(=O)NC1(C)NC(=O)N2` (stereo not drawn) [MBHF-hit22, 3a,6a-dimethylperhydroimidazo[4,5-d]imidazole-2,5-dione]: the inhibition at 20 µM was 76.3% in test [1] and less than 80% in test [2].
Regarding `CC(C)c1cc(Br)c(NC(=O)NCc2ccco2)c(Br)c1` [MBHF-hit23, N-(2,6-dibromo-4-isopropylphenyl)-N'-(2-furylmethyl)urea], the figures for the inhibition at 20 µM in test [1] and in test [2] were 74.8% and less than 80%, respectively.
In the case of `Cc1nc2c(cnn2-c2ccccc2)c(=O)o1` [MBHF-hit24, 6-methyl-1-phenylpyrazolo[3,4-d][1,3]oxazin-4(1H)-one], the inhibition at 20 µM was 74.6% in test [1] and less than 80% in test [2].
Turning to `CCCCCc1cnc(-c2ccc(C#N)cc2)nc1` [MBHF-hit25, 4-(5-pentylpyrimidin-2-yl)benzonitrile], the inhibition at 20 µM in test [1] came to 74.5%. Besides, in test [2], the “Abnormal phenotype detected at 168 h” value is “Cur, Evi” and the inhibition at 20 µM amounted to 100%.
Take `Clc1ccc(Oc2ccnc3cc(Cl)ccc23)cc1` [MBHF-hit26, 7-chloro-4-(4-chlorophenoxy)quinoline]: the inhibition at 20 µM in test [1] is 73.9%. In test [2], the “Abnormal phenotype detected at 168 h” value is “Cur, Evi” and the inhibition at 20 µM lay in the range of 80 to 99%.
With `COc1c(C(=O)NCc2ccc(Cl)cc2)csc1Cl` [MBHF-hit27, 5-chloro-N-(4-chlorobenzyl)-4-methoxy-3-thiophenecarboxamide], the inhibition at 20 µM in test [1] is 73.4%. Further, in test [2], the “Abnormal phenotype detected at 168 h” value was “Cur, Evi” and the inhibition at 20 µM was less than 80%.
Regarding `CC(=O)c1ccc(NC(=O)CSc2nnc(-c3ccco3)n2C)cc1` [MBHF-hit28, N-(4-acetylphenyl)-2-{[5-(2-furyl)-4-methyl-4H-1,2,4-triazol-3-yl]sulfanyl}acetamide], the inhibition at 20 µM in test [1] was 72.7%; in test [2] it was less than 80%.
Take `CS(=O)(=O)c1ccc2ccn(O)c2c1` [MBHF-hit29, 6-(methylsulfonyl)-1H-indol-1-ol]: the inhibition at 20 µM in test [1] is 72%; in test [2], less than 80%.
In the same order, the values of `O=S1(=O)CC=C(Cl)C1` [MBHF-hit30, 3-chloro-2,5-dihydro-1H-1lambda~6~-thiophene-1,1-dione] are 71.5% and less than 80%.
The matching figures for `O=[N+]([O-])c1ccc2c(c1)CCN2S(=O)(=O)c1ccccc1` [MBHF-hit31, 5-nitro-1-(phenylsulfonyl)indoline]: 71.5% and less than 80%.
